Assay results taken from patent US6046190A, “Hydroxyethylamino sulphonamides useful as retroviral protease inhibitors” (G.D. Searle & Co., priority 1996, dated 2000).
Where two headings read alike, the source gives them in different places.

Columns and labels:
[1] = Intrinsic toxicity of test compound in uninfected CEM cells (MTT); conditions: human
Description: (§1) Methods, 20, 309-321 (1988).
(§2) [table 42: the next 8 blocks are its lines as printed, fixed-width]

HIV-1 in CEM cells = experiment: HIV inhibition assay of acutely infected CEM cells (tetrazolium/MTT colorimetric), antiviral efficacy; type: cell-based; conditions: Human immunodeficiency virus 1, CCRF-CEM, 168 h
Description: as §1, §2

HIV protease = biological target: T1, HIV protease (Human immunodeficiency virus type 1 group M subtype B, UniProt P04585); experiment: biochemical; type: biochemical
T1 construct: HIV protease is diluted in the assay buffer to a final enzyme concentration of 12.3 nanomolar, based on a molecular weight of 10,780
Method: The enzyme method is described below. […] The positive control is MVT-101 (Miller, M. et al, Science, 246, 1149 (1989)]. The assay conditions are as follows:
20 mM sodium phosphate, pH 6.4
The above described substrate is dissolved in DMSO, then diluted 10 fold in assay buffer. Final substrate concentration in the assay is 80 μM.
The final concentration of DMSO is 14% and the final concentration of glycerol is 18%. The test compound is dissolved in DMSO and diluted in DMSO to 10× the test concentration; 10 μl of the enzyme preparation is added, the materials mixed and then the mixture is incubated at ambient temperature for 15 minutes. The enzyme reaction is initiated by the addition of 40μl of substrate. The increase in fluorescence is monitored at 4 time points (0, 8, 16 and 24 minutes) at ambient temperature. Each assay is carried out in duplicate wells.

[2] = Table 21, CEM cells, 1000 TCID50 HIV-1, 7 days, read-out: EC50
[3] = Table 19B, calculated IC50, enzyme 12.3 nanomolar, substrate 80 μM, pH 6.4
[4] = Table 21, above-described enzyme assay
[5] = Table 20, calculated IC50, enzyme 12.3 nanomolar, substrate 80 μM, pH 6.4

SMILES	EC50 (HIV-1 in CEM cells)	EC50 (HIV-1 in CEM cells; [2])	also measured
COc1ccc(S(=O)(=O)N(CC(C)C)C[C@@H](O)[C@H](Cc2ccccc2)NC(=O)OCc2ccc[n+]([O-])c2)cc1 [Example 25]	120 nM	–	CC50 at 168 h [1]: 167000 nM
COc1ccc(S(=O)(=O)N(CC(C)C)C[C@@H](O)[C@H](Cc2ccccc2)NC(=O)OCc2ccc(N)nc2)cc1 [Example 38]	–	1100 nM	–
COc1ccc(S(=O)(=O)N(CC(C)C)C[C@@H](O)[C@H](Cc2ccccc2)NC(=O)O[C@H]2CCSC2)cc1 [Example 46]	–	< 20 nM	–
CC(C)CN(C[C@@H](O)[C@H](Cc1ccccc1)NC(=O)OCc1cncnc1)S(=O)(=O)c1ccc(O)cc1 [Example 41]	11 nM	–	–
CC(C)CN(C[C@@H](O)[C@H](Cc1ccccc1)NC(=O)OCc1cccnc1)S(=O)(=O)c1ccc(O)cc1 [Example 20]	–	13 nM	–
COc1ccc(S(=O)(=O)N(CC(C)C)C[C@@H](O)[C@H](Cc2ccccc2)NC(=O)c2ccccc2)cc1 [Example 28]	76 nM	–	CC50 at 168 h [1]: 213000 nM
CC(C)CCN(C[C@@H](O)[C@H](Cc1ccccc1)NC(=O)[C@H](CC(N)=O)NC(=O)c1ccc2ccccc2n1)S(=O)(=O)c1ccccc1 [Example 2]	–	5 nM	CC50 at 168 h [1]: 203 nM
CC(C)CN(C[C@@H](O)[C@H](Cc1ccccc1)NC(=O)O[C@H]1CCOC1)S(=O)(=O)c1ccc(O)cc1 [Example 45]	5 nM	–	–
CCC(C)[C@H](NC(=O)CNC)C(=O)N[C@@H](Cc1ccccc1)[C@H](O)CN(CCC(C)C)S(=O)(=O)c1ccccc1 (some centres unmarked) [Example 15]	38 nM	–	–
CC(C)CCN(C[C@@H](O)[C@H](Cc1ccccc1)NC(=O)C(NC(=O)CN(C)C)C(C)(C)C)S(=O)(=O)c1ccccc1 (some centres unmarked) [Table 3 Entry 8]	–	–	IC50 (HIV protease; [3]): 3 nM
CC(C)CN(C[C@@H](O)[C@H](Cc1ccccc1)NC(=O)OCc1ccoc1)S(=O)(=O)c1ccc(N)cc1 [Example 60]	–	60 nM	–
COc1ccc(S(=O)(=O)N(CC(C)C)C[C@@H](O)[C@H](Cc2ccccc2)NC(=O)OCc2cncnc2)cc1 [Example 23]	–	8 nM	–
CC(C)CCN(C[C@@H](O)[C@H](Cc1ccccc1)NC(=O)[C@@H](NC(=O)CN(C)C)C(C)(C)C)S(=O)(=O)c1ccccc1 [Example 11]	11 nM	–	CC50 at 168 h [1]: 54 nM
COc1ccc(S(=O)(=O)N(CC(C)C)C[C@@H](O)[C@H](Cc2ccccc2)NC(=O)c2ccc(N(C)C)cc2C)cc1 [Example 52]	–	–	IC50 (HIV protease; [4]): > 100 nM
COc1ccc(S(=O)(=O)N(CC(C)C)C[C@@H](O)[C@H](Cc2ccccc2)NC(=O)c2cccnc2)cc1 [Example 34]	188 nM	–	–
Cc1c(O)cccc1C(=O)N[C@@H](Cc1ccccc1)[C@H](O)CN(CC(C)C)S(=O)(=O)c1ccc2c(c1)OCO2 [Example 73]	–	22 nM	–
CNCC(=O)NC(C(=O)N[C@@H](Cc1ccccc1)[C@H](O)CN(CCC(C)C)S(=O)(=O)c1ccccc1)C(C)(C)C (some centres unmarked) [Table 3 Entry 6]	–	–	IC50 (HIV protease; [3]): 1.8 nM
COc1ccc(S(=O)(=O)N(CC(C)C)C[C@@H](O)[C@H](Cc2ccccc2)NC(=O)c2ccccc2C)cc1 [Example 29]	105 nM	–	CC50 at 168 h [1]: 196000 nM
COc1ccc(S(=O)(=O)N(CC(C)C)C[C@@H](O)[C@H](Cc2ccccc2)NC(=O)c2ccc(N)cc2C)cc1 [Example 51]	–	< 20 nM	IC50 (HIV protease; [4]): 9 nM
COc1ccc(S(=O)(=O)N(CC(C)C)C[C@@H](O)[C@H](Cc2ccccc2)NC(=O)OCc2ccncc2)cc1 [Example 22]	18 nM	–	CC50 at 168 h [1]: 31000 nM
COc1ccc(S(=O)(=O)N(CC(C)C)C[C@@H](O)[C@H](Cc2ccccc2)NC(=O)c2ccc(C)cc2C)cc1 [Table 5A Entry 6]	–	–	IC50 (HIV protease): 23 nM
CCC(C)[C@H](NC(=O)CN(C)C)C(=O)N[C@@H](Cc1ccccc1)[C@H](O)CN(CC(C)C)S(=O)(=O)c1ccc(OC)cc1 (some centres unmarked) [Example 13]	< 16 nM	–	–
COc1ccc(S(=O)(=O)N(CC(C)C)C[C@@H](O)[C@H](Cc2ccccc2)NC(=O)c2cccc(N)c2C)cc1 [Example 49]	–	< 20 nM	IC50 (HIV protease; [4]): 6 nM
CC(C)CN(C[C@@H](O)[C@H](Cc1ccccc1)NC(=O)OCc1cncs1)S(=O)(=O)c1ccc2c(c1)OCO2 [Example 70]	–	30 nM	–
CC(C)CCN(C[C@@H](O)[C@H](Cc1ccccc1)NC(=O)C(NC(=O)OCc1ccccc1)C(C)(C)C)S(C)(=O)=O (some centres unmarked) [Table 3 Entry 1]	–	–	IC50 (HIV protease; [3]): 81 nM
COc1ccc(S(=O)(=O)N(CC(C)C)C[C@@H](O)[C@H](Cc2ccccc2)NC(=O)c2ccccc2OC)cc1 [Table 5A Entry 29]	–	–	IC50 (HIV protease; [5]): 190 nM
Cc1ccccc1C(=O)N[C@@H](Cc1ccccc1)[C@H](O)CN(CC(C)C)S(=O)(=O)c1ccc(O)cc1 [Example 37]	–	< 20 nM	–
COc1ccc(S(=O)(=O)N(CC(C)C)C[C@@H](O)[C@H](Cc2ccccc2)NC(=O)c2cccc(O)c2C)cc1 [Example 59]	–	22 nM	IC50 (HIV protease; [4]): 3 nM

SMILES	EC50 (HIV-1 in CEM cells)	EC50 (HIV-1 in CEM cells; [2])	also measured
COc1ccc(S(=O)(=O)N(CC(C)C)C[C@@H](O)[C@H](Cc2ccccc2)NC(=O)OCc2ccoc2)cc1 [Example 58]	–	70 nM	–
COc1ccc(S(=O)(=O)N(CC(C)C)C[C@@H](O)[C@H](Cc2ccccc2)NC(=O)c2cc(N)ccc2C)cc1 [Example 54]	–	–	IC50 (HIV protease; [4]): 10 nM
COc1ccc(S(=O)(=O)N(CC(C)C)CC(O)C(Cc2ccccc2)NC(=O)c2ccncc2)cc1 (centres unmarked) [Table 5A Entry 11]	–	–	IC50 (HIV protease; [5]): 18 nM
COc1ccc(S(=O)(=O)N(CC(C)C)C[C@@H](O)[C@H](Cc2ccccc2)NC(=O)OCc2cncs2)cc1 [Example 56]	–	40 nM	–
COc1ccc(S(=O)(=O)N(CC(C)C)C[C@@H](O)[C@H](Cc2ccccc2)NC(=O)OC(C)(C)C)cc1 [Example 27]	177 nM	–	CC50 at 168 h ([1]; cem cells): 300000 nM
CC(C)CN(C[C@@H](O)[C@H](Cc1ccccc1)NC(=O)OCc1cccnc1)S(=O)(=O)c1ccccc1 [Example 16]	80 nM	–	CC50 at 168 h [1]: 62000 nM
COc1ccc(S(=O)(=O)N(CC(C)C)C[C@@H](O)[C@H](Cc2ccccc2)NC(=O)c2cccc(N(C)C)c2C)cc1 [Example 36]	–	898 nM	–
COc1ccc(S(=O)(=O)N(CC(C)C)C[C@@H](O)[C@H](Cc2ccccc2)NC(=O)O[C@H]2CCOC2)cc1 [Example 44]	–	8 nM	–
COc1ccc(COC(=O)NC[C@@H](C)C(=O)N[C@@H](Cc2ccccc2)[C@H](O)CN(CCC(C)C)S(=O)(=O)c2ccccc2)cc1 [Example 3]	11 nM	–	CC50 at 168 h [1]: 780 nM
COc1ccc(S(=O)(=O)N(CC(C)C)C[C@@H](O)[C@H](Cc2ccccc2)NC(=O)C(NC(=O)CN(C)C)C(C)(C)C)cc1 (some centres unmarked) [Table 3 Entry 10]	–	–	IC50 (HIV protease; [3]): 2.5 nM
COc1ccc(S(=O)(=O)N(CC(C)C)C[C@@H](O)[C@H](Cc2ccccc2)NC(=O)c2ccccc2Cl)cc1 [Example 30]	154 nM	–	CC50 at 168 h [1]: 154000 nM
COc1ccc(S(=O)(=O)N(CC(C)C)C[C@@H](O)[C@H](Cc2ccccc2)NC(=O)C2CCc3ccccc3C2)cc1 (some centres unmarked) [Table 5A Entry 4]	–	–	IC50 (HIV protease): 10 nM
COc1ccc(S(=O)(=O)N(CC(C)C)C[C@@H](O)[C@H](Cc2ccccc2)NC(=O)c2ccncc2)cc1 [Example 33]	68 nM	–	–
CC(C)CN(C[C@@H](O)[C@H](Cc1ccccc1)NC(=O)OCc1cccnc1)S(=O)(=O)c1ccc(Cl)cc1 [Example 18]	154 nM	–	–
CC(C)CN(C[C@@H](O)[C@H](Cc1ccccc1)NC(=O)OCc1cccnc1)S(=O)(=O)c1ccc2c(c1)OCO2 [Example 69]	68 nM	–	–
COc1ccc(S(=O)(=O)N(CC(C)C)CC(O)C(Cc2ccccc2)NC(=O)c2cccnc2)cc1 (centres unmarked) [Table 5A Entry 9]	–	–	IC50 (HIV protease; [5]): 67 nM
COc1ccc(S(=O)(=O)N(CC(C)C)C[C@@H](O)[C@H](Cc2ccccc2)NC(=O)c2cccc([N+](=O)[O-])c2C)cc1 [Example 48]	–	210 nM	–
CC(C)CN(C[C@@H](O)[C@H](Cc1ccccc1)NC(=O)O[C@H]1CCS(=O)(=O)C1)S(=O)(=O)c1ccc(O)cc1 [Example 43]	–	63 nM	–
COc1ccc(S(=O)(=O)N(CC(C)C)C[C@@H](O)[C@H](Cc2ccccc2)NC(=O)c2cccc(OC)c2)cc1 [Table 5A Entry 30]	–	–	IC50 (HIV protease): 30 nM
CC(C)CN(C[C@@H](O)[C@H](Cc1ccccc1)NC(=O)O[C@H]1CCSC1)S(=O)(=O)c1ccc(O)cc1 [Example 42]	–	< 20 nM	–
COc1ccc(S(=O)(=O)N(CC(C)C)CC(O)C(Cc2ccccc2)NC(=O)c2ccccc2C(C)C)cc1 (centres unmarked) [Table 5A Entry 14]	–	–	IC50 (HIV protease; [5]): 49 nM
COc1ccc(S(=O)(=O)N(CC(C)C)CC(O)C(Cc2ccccc2)NC(=O)c2ccccc2Cl)cc1 (centres unmarked) [Table 5A Entry 12]	–	–	IC50 (HIV protease; [5]): 6 nM
COc1ccc(S(=O)(=O)N(CC(C)C)C[C@@H](O)[C@H](Cc2ccccc2)NC(=O)OCc2ccc(O)nc2)cc1 [Example 39]	–	269 nM	–
CC(C)CN(C[C@@H](O)[C@H](Cc1ccccc1)NC(=O)OCc1cccnc1)S(=O)(=O)c1ccc([N+](=O)[O-])cc1 [Example 19]	–	377 nM	–
COc1ccc(S(=O)(=O)N(CC(C)C)CC(O)C(Cc2ccccc2)NC(=O)c2ccc(C)cc2)cc1 (centres unmarked) [Table 5A Entry 28]	–	–	IC50 (HIV protease; [5]): 15 nM
CC(C)CN(C[C@@H](O)[C@H](Cc1ccccc1)NC(=O)OCc1cncs1)S(=O)(=O)c1ccc(O)cc1 [Example 57]	–	< 20 nM	–
COc1ccc(S(=O)(=O)N(CC(C)C)CC(O)C(Cc2ccccc2)NC(=O)c2ccccc2)cc1 (centres unmarked) [Table 5A Entry 25]	–	–	IC50 (HIV protease; [5]): 14 nM
